In assay [1] the target is T1, VEGF receptor KDR (Homo sapiens, UniProt P35968).
T1 construct: made in house; host or cells: Sf9 cells (Spodoptera frugiperda), recombinant baculovirus
Briefly: In vitro receptor tyrosine kinase assay, VEGF receptor KDR (DELFIA). The format is biochemical. The note with it: ATP 0.6 uM, enzyme 5 nM; read-out: Potency in enzyme assays VEGF. An excerpt: (§1) These tests measure the ability of compounds to inhibit the enzymatic activity of recombinant human c-Met/HGF receptor and VEGF receptor enzymatic activity.
In the case of VEGF receptor KDR a 1.6-kb cDNA corresponding to the catalytic domain of VEGFR2 or KDR (Genbank accession number AF035121 amino acid 806 to 1356) is cloned into the Pst I site of the pDEST20 Gateway vector (Invitrogen) for the production of a GST-tagged version of that enzyme. This construct is used to generate recombinant baculovirus using the Bac-to-Bac system according to the manufacturer's instructions (Invitrogen).
The GST-VEGFR2806-1356 protein is expressed in Sf9 cells (Spodoptera frugiperda) upon infection with recombinant baculovirus construct. Briefly, Sf9 cells grown in suspension and maintained in serum-free medium (Sf900 II supplemented with gentamycin) at a cell density of about 2×10^6 cells/ml are infected with the above-mentioned viruses at a multiplicity of infection (MOI) of 0.1 during 72 hours at 27° C. with agitation at 120 rpm on a rotary shaker. Infected cells are harvested by centrifugation at 398 g for 15 min. Cell pellets are frozen at −80° C. until purification is performed.
All steps described in cell extraction and purification are performed at 4° C. Frozen Sf9 cell pellets infected with the GST-VEGFR2806-1356 recombinant baculovirus re thawed and gently resuspended in Buffer A (PBS pH 7.3 supplemented with 1 μg/ml pepstatin, 2 μg/ml Aprotinin and leupeptin, 50 μg/ml PMSF, 50 μg/ml TLCK and 10 μM E64 and 0.5 mM DTT) using 3 ml of buffer per gram of cells. Suspension is Dounce homogenized and 1% Triton X-100 is added to the homogenate after which it is centrifuged at 22500 g, 30 min., 4° C. The supernatant (cell extract) is used as starting material for purification of GST-VEGFR2806-1356.
The supernatant is loaded onto a GST-agarose column (Sigma) equilibrated with PBS pH 7.3. Following a four column volume (CV) wash with PBS pH 7.3+1% Triton X-100 and 4 CV wash with buffer B (50 mM Tris pH 8.0, 20% glycerol and 100 mM NaCl), bound proteins are step eluted with 5 CV of buffer B supplemented with 5 mM DTT and 15 mM glutathion. GST-VEGFR2806-1356 enriched fractions from this chromatography step are pooled based on U.V. trace i.e. fractions with high O.D^-280- Final GST-VEGFR2806-1356 protein preparations concentrations are about 0.7 mg/ml with purity approximating 70%. Purified GST-VEGFR2806-1356 protein stocks are aliquoted and frozen at −80° C. prior to use in enzymatic assay.
Inhibition of c-Met/HGF receptor and VEGFR/KDR is measured in a DELFIA™ assay (Perkin Elmer). The substrate poly(Glu4,Tyr) is immobilized onto black high-binding polystyrene 96-well plates. The coated plates are washed and stored at 4° C. During the assay, enzymes are pre-incubated with inhibitor and Mg-ATP on ice in polypropylene 96-well plates for 4 minutes, and then transferred to the coated plates. The subsequent kinase reaction takes place at 30° C. for 10-30 minutes. ATP concentrations in the assay are 10 uM for C-Met (5× the Km) and 0.6 uM for VEGFR/KDR (2× the Km). Enzyme concentration is 25 nM (C-Met) or 5 nM (VEGFR/KDR). After incubation, the kinase reactions are quenched with EDTA and the plates are washed. Phosphorylated product is detected by incubation with Europium-labeled anti-phosphotyrosine MoAb. After washing the plates, bound MoAb is detected by time-resolved fluorescence in a Gemini SpectraMax reader (Molecular Devices). Compounds are evaluated over a range of concentrations and IC50's (concentration of compounds giving 50% inhibition of enzymatic activity) are determined.

For assay [2], the system named is A549. Briefly: A549 wound healing inhibition. Particulars: Homo sapiens; A549 cells; read-out: Potency in cell-based assays A549 wound healing inhibition.
Assay [3] has as its system DU145. Briefly: DU145 scattering inhibition. The note with it: Homo sapiens, DU-145; DU145 cells; read-out: Potency in cell-based assays DU145 scattering inhibition.
In assay [4] the target is T2, recombinant human c-Met/HGF receptor (Homo sapiens, UniProt P08581).
T2 construct: His tag; made in house; host or cells: Hi-5 cells (Trichoplusia ni), recombinant baculovirus
Briefly: In vitro receptor tyrosine kinase assay, c-Met (DELFIA). The note with it: ATP 10 uM, enzyme 25 nM; read-out: Potency in enzyme assays Cmet. It counts as biochemical.
Text: as §1
A 1.3-kb cDNA corresponding to the intracellular domain of c-Met or c-Met IC (Genbank accession number NP000236-1 amino acid […]) is cloned into the BamHI/XhoI sites of the pBlueBacHis2A vector (Invitrogen) for the production of a histidine-tagged version of that enzyme. This construct is used to generate recombinant baculovirus using the Bac-N-Blue™ system according to the manufacturer's instructions (Invitrogen).
The c-Met IC protein is expressed in Hi-5 cells (Trichoplusia Ni) upon infection with recombinant baculovirus construct. Briefly, Hi-5 cells grown in suspension and maintained in serum-free medium (Sf900 II supplemented with gentamycin) at a cell density of about 2×10^6 cells/ml are infected with the above-mentioned viruses at a multiplicity of infection (MOI) of 0.2 during 72 hours at 27° C. with agitation at 120 rpm on a rotary shaker. Infected cells are harvested by centrifugation at 398 g for 15 min. Cell pellets are frozen at −80° C. until purification is performed.
All steps described in cell extraction and purification are performed at 4° C. Frozen Hi-5 cell pellets infected with the C-Met IC recombinant baculovirus are thawed and gently resuspended in Buffer A (20 mM Tris pH 8.0, 10% glycerol, 1 μg/ml pepstatin, 2 μg/ml Aprotinin and leupeptin, 50 μg/ml PMSF, 50 μg/ml TLCK and 10 μM E64, 0.5 mM DTT and 1 mM Levamisole) using 3 ml of buffer per gram of cells. The suspension is Dounce homogenized after which it is centrifuged at 22500 g, 30 min., 4° C. The supernatant (cell extract) is used as starting material for purification of c-Met IC.
The supernatant is loaded onto a QsepharoseFF column (Amersham Biosciences) equilibrated with Buffer B (20 mM Tris pH 8.0, 10% glycerol) supplemented with 0.05M NaCl. Following a ten column volume (CV) wash with equilibration buffer, bound proteins are eluted with a 5 CV salt linear gradient spanning from 0.05 to 1M NaCl in Buffer B. Typically, the conductivity of selected fractions rank between 6.5 and 37 mS/cm. This Qsepharose eluate has an estimated NaCl concentration of 0.33M and is supplemented with a 5M NaCl solution in order to increase NaCl concentration at 0.5M and also with a 5M Imidazole (pH 8.0) solution to achieve a final imidazole concentration of 15 mM. This material is loaded onto a HisTrap affinity column (GE Healthcare) equilibrated with Buffer C (50 mM NaPO4 pH 8.0, 0.5M NaCl, 10% glycerol) supplemented with 15 mM imidazole. After a 10 CV wash with equilibration buffer and an 8 CV wash with buffer C+40 mM imidazole, bound proteins are eluted with an 8 CV linear gradient (15 to 500 mM) of imidazole in buffer C. C-Met IC enriched fractions from this chromatography step are pooled based on SDS-PAGE analysis. This pool of enzyme undergoes buffer exchange using PD-10 column (GE Healthcare) against buffer D (25 mM HEPES pH 7.5, 0.1M NaCl, 10% glycerol and 2 mM β-mercaptoethanol). Final C-Met IC protein preparations concentrations are about 0.5 mg/ml with purity approximating 80%. Purified c-Met IC protein stocks are supplemented with BSA at 1 mg/ml, aliquoted and frozen at −80° C. prior to use in enzymatic assay.
Inhibition of c-Met/HGF receptor and VEGFR/KDR is measured in a DELFIA™ assay (Perkin Elmer). The substrate poly(Glu4,Tyr) is immobilized onto black high-binding polystyrene 96-well plates. The coated plates are washed and stored at 4° C. During the assay, enzymes are pre-incubated with inhibitor and Mg-ATP on ice in polypropylene 96-well plates for 4 minutes, and then transferred to the coated plates. The subsequent kinase reaction takes place at 30° C. for 10-30 minutes. ATP concentrations in the assay are 10 uM for C-Met (5× the Km) and 0.6 uM for VEGFR/KDR (2× the Km). Enzyme concentration is 25 nM (C-Met) or 5 nM (VEGFR/KDR). […]

Each structure is given as a SMILES string. pIC50: −log10 of the molar value.

T1 sequence (P35968 806-1356): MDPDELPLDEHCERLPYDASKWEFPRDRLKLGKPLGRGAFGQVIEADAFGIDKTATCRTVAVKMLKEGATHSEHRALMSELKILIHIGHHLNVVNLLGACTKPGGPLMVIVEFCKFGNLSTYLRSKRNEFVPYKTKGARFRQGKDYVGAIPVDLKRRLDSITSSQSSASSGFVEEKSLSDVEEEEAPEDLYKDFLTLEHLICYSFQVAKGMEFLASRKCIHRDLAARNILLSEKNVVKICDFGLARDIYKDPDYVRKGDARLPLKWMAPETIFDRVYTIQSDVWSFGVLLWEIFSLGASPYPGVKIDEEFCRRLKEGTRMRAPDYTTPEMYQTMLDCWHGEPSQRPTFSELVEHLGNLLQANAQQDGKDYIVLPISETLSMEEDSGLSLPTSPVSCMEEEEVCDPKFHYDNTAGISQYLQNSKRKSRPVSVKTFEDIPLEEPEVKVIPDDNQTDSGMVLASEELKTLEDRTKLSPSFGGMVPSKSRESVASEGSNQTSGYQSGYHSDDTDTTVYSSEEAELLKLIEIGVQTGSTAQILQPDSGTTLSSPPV
T2 sequence (P08581 1078-1337): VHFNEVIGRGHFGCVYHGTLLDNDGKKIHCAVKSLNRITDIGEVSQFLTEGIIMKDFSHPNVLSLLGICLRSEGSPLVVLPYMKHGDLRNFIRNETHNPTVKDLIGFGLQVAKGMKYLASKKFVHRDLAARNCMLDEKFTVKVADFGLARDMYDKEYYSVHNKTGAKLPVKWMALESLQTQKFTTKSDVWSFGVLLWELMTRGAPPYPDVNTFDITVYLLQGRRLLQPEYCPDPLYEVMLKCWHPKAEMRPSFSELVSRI

Regarding `CN(C)[C@@H]1CCN(C(=O)Nc2cc(Oc3ccc(NC(=O)N4CCN(c5ccc(F)cc5)C4=O)cc3F)ccn2)C1` [Compound 18g, (R)-N-(4-(2-(3-(dimethylamino)pyrrolidine-1-carboxamido)pyridin-4-yloxy)-3-fluorophenyl)-3-(4-fluorophenyl)-2-oxoimidazolidine-1-carboxamide], the pIC50 in assay [1] is over 6.60; in assay [2] it was at most 6.00; in assay [3], at most 6.00; in assay [4] it was over 6.60.

For `O=C(Nc1ccc(Oc2cc(NC(=O)N3CCCC3)ncn2)c(F)c1)C1CCN(c2ccccc2)C1=O` (centres unmarked) [Compound 9b, N-(6-(2-Fluoro-4-(2-oxo-1-phenylpyrrolidine-3-carboxamido)phenoxy)pyrimidin-4-yl)pyrrolidine-1-carboxamide], the pIC50 is at most 6.00 in assay [1], 5.00 to 5.30 in assay [2], 5.00 to 5.30 in assay [3] and at most 6.00 in assay [4].

For `CN(C)[C@H]1CCN(C(=O)Nc2cc(Oc3ccc(NC(=O)N4CCN(c5ccccc5)C4=O)cc3F)ccn2)C1` [Compound 18f, (S)-N-(4-(2-(3-(dimethylamino)pyrrolidine-1-carboxamido)pyridin-4-yloxy)-3-fluorophenyl)-2-oxo-3-phenylimidazolidine-1-carboxamide], the pIC50 in assay [1] is over 6.60; in assay [2] it was 5.30 to 6.00; in assay [3] it was at most 6.00; in assay [4], over 6.60.

In the case of `CC(=O)Nc1ccc(Oc2cccc(NC(=O)N3CCN(c4ccccc4)C3=O)c2)cn1` [Compound 31a, N-(3-(6-acetamidopyridin-3-yloxy)phenyl)-2-oxo-3-phenylimidazolidine-1′-carboxamide], the pIC50 in assay [1] was at most 6.00; in assay [2] it was 5.30 to 6.00; in assay [3] it was 5.00 to 5.30; in assay [4], 6.30 to 6.60.

Consider `O=C(NCCN1CCOCC1)c1cc(Oc2ccc(NC(=O)N3CCN(c4ccc(F)cc4)C3=O)cc2F)ccn1` [Compound 87d, 4-(2-fluoro-4-(3-(4-fluorophenyl)-2-oxoimidazolidine-1-carboxamido)phenoxy)-N-(2-morpholinoethyl)picolinamide], for which the results for the pIC50 in assay [1] and in assay [4] were under 6.00 and at most 6.00, respectively.

For `COc1ccc(Nc2nccc(Oc3ccc(NC(=O)N4CCN(c5ccccc5)C4=O)cc3F)n2)cc1` [Compound 61b, N-(3-fluoro-4-(2-(4-methoxyphenylamino)pyrimidin-4-yloxy)phenyl)-2-oxo-3-phenylimidazolidine-1-carboxamide], the pIC50 was at most 6.00 in assay [1], 5.00 to 5.30 in assay [2], 5.00 to 5.30 in assay [3] and 6.00 to 6.30 in assay [4].

As to `CN(C)CCCOC(=O)Nc1cc(Oc2ccc(NC(=O)N3CCN(c4ccccc4)C3=O)cc2F)ccn1` [Compound 18i, 3-(dimethylamino)propyl4-(2-fluoro-4-(2-oxo-3-phenylimidazolidine-1-carboxamido)phenoxy),pyridin-2-ylcarbamate], the pIC50 is at most 6.00 in assay [1], 5.30 to 6.00 in assay [2], 5.30 to 6.00 in assay [3] and over 6.60 in assay [4].

Regarding `O=C(NCCN1CCOCC1)c1cc(Oc2ccc(NC(=O)N3CCN(c4ccccc4)C3=O)cc2F)ccn1` [Compound 87c], the pIC50 in assay [1] is at most 6.00; in assay [2], under 5.00; in assay [3], under 5.00; in assay [4] it was at most 6.00.

Consider `O=C(Nc1cc(Oc2ccc(NC(=O)N3CCN(c4ccccc4)C3=O)cc2F)ccn1)N1CCCC1` [Compound 18a, N-(3-Fluoro-4-(2-(pyrrolidine-1-carboxamido)pyridin-4-yloxy)phenyl)-2-oxo-3-phenylimidazolidine-1-carboxamide], for which the pIC50 in assay [1] was 6.30 to 6.60; in assay [2] it was at most 6.00; in assay [3], at most 6.00; in assay [4], over 6.60.

Take `O=C(CC(Nc1ccc(Oc2cc(NC(=O)N3CCCC3)ncn2)c(F)c1)C(F)(F)F)Nc1ccccc1` (centres unmarked) [Compound 13, N-(6-(2-Fluoro-4-(1,1,1-trifluoro-4-oxo-4-(phenylamino)butan-2-ylamino)phenoxy)pyrimidin-4-yl)pyrrolidine-1-carboxamide]: the pIC50 was over 6.60 in assay [1], 5.00 to 5.30 in assay [2], 5.00 to 5.30 in assay [3] and at most 6.00 in assay [4].

(Values after patent US20080255155A1, “KINASE INHIBITORS AND USES THEREOF” (priority 2006, published 2008).)
